ChEMBL document CHEMBL3400078, “Constituents of the stem barks of Ailanthus altissima and their potential to inhibit LPS-induced nitric oxide production” (Bioorg Med Chem Lett, 2015)

What follows are molecules tested on RAW264.7 (assay: Antiinflammatory activity in mouse RAW264.7 cells assessed as decrease in LPS-induced NO production after 24 hrs by Griess assay). Settings: RAW264.7, 24 h.
Format: functional, cell-based

Row | SMILES | IC50 [µM]
1 | O=c1ccc2ncc(O[C@@H]3O[C@H](CO)[C@@H](O)[C@H](O)[C@H]3O[C@@H]3OC[C@](O)(CO)[C@H]3O)c3c4ccccc4n1c23 | 63.5
2 | C[C@@](O)(CC(=O)O)CC(=O)OC[C@H]1O[C@@H](Oc2cnc3ccc(=O)n4c5ccccc5c2c34)[C@H](O[C@@H]2OC[C@](O)(CO)[C@H]2O)[C@@H](O)[C@@H]1O | > 100
3 | C=C1[C@@H](O)[C@]2(O)OC[C@]34[C@H]2[C@@]2(C)[C@H](O)[C@@H](O[C@@H]5O[C@H](CO)[C@@H](O)[C@H](O)[C@H]5O)C=C(C)[C@@H]2C[C@H]3OC(=O)C[C@@H]14 | 100
4 | O=C(O)/C=C/c1ccc(O)cc1 [COUMARIC ACID] | 73.4
5 | CC(=N)NCCCC[C@H](N)C(=O)O [L-NIL] | 15.8
6 | CC1=CC(=O)[C@@H](O)[C@]2(C)[C@H]3[C@@]4(O)C(=O)OC[C@@]35[C@@H](C[C@@H]12)OC(=O)C[C@H]5[C@H]4C [SHINJUDILACTONE] | 63.1
7 | C=C1[C@H](O)[C@]2(O)OC[C@]34[C@H]2[C@@]2(C)[C@H](O)[C@@H](O)C=C(C)[C@@H]2C[C@H]3OC(=O)C[C@@H]14 [SHINJULACTONE A] | 56.4

The remaining lines, values ahead:

Row | IC50 [µM] | SMILES
8 | 85 | C[C@@](O)(CC(=O)O)CC(=O)OC[C@H]1O[C@@H](Oc2cnc3ccc(=O)n4c5ccccc5c2c34)[C@H](O)[C@@H](O)[C@@H]1O
9 | 71.6 | COc1cc(/C=C/C(=O)O)ccc1O[C@@H]1O[C@H](CO)[C@@H](O)[C@H](O)[C@H]1O
10 | > 100 | COc1cc2ccc(=O)oc2c(OC)c1O
11 | 43.8 | COc1cc(C(=O)CCO)ccc1O
12 | > 100 | COc1cc(/C=C/C(=O)O)ccc1O [FERULATE]
13 | 72.8 | O=C(O)c1ccc(O)cc1 [PARABEN]
14 | 21.6 | COc1cc([C@H]2OC[C@H]3[C@@H]2CO[C@@H]3c2cc(OC)c(O)c(OC)c2)cc(OC)c1O [SYRINGARESINOL]
15 | 23.2 | COc1cc(C(=O)O)ccc1O [VANILLIC ACID]
